Experimental data taken from ChEMBL document CHEMBL1146842, “Design, synthesis, and biological evaluations of novel quinolones as HIV-1 non-nucleoside reverse transcriptase inhibitors” (Bioorg Med Chem Lett, 2006).

Test system: Human immunodeficiency virus 1
Test: Antiviral activity against HIV1 K103N mutant
Format: functional, organism-based
Conditions: not given

Going from `CCCCC12CC1(C(N)=O)C(=O)Nc1ccc(Cl)cc12` (stereo not drawn) to `CCCCC12CC1(C(=O)OC)C(=O)Nc1ccc(Cl)cc12` (stereo not drawn), the EC50 falls from 3830 nM to 682 nM (5.6-fold).

`C=CCOC(=O)C12CC1(CCCC)c1cc(Cl)ccc1NC2=O` (stereo not drawn) and `CCCCC12CC1(C(=O)OCC)C(=O)Nc1ccc(Cl)cc12` (stereo not drawn) are within 1.5-fold of each other in EC50: 1080 nM for the first, 884 nM for the second.

Going from `CCOC(=O)C12CC1(CC(C)C)c1cc(Cl)ccc1NC2=O` (stereo not drawn) to `CCCCC12CC1(COCC)C(=O)Nc1ccc(Cl)cc12` (stereo not drawn), the EC50 falls from greater than 10000 nM to 3960 nM.

Test system: Human immunodeficiency virus 1
Test: Antiviral activity against HIV1 Y188L mutant
Format: functional, organism-based
Conditions: not given

Compared with `CCCCC12CC1(C(N)=O)C(=O)Nc1ccc(Cl)cc12` (stereo not drawn), `CCCCC12CC1(C(=O)OC)C(=O)Nc1ccc(Cl)cc12` (stereo not drawn) is lower in EC50: greater than 10000 nM for the first, 7340 nM for the second. The second is the more potent here.

`C=CCOC(=O)C12CC1(CCCC)c1cc(Cl)ccc1NC2=O` (stereo not drawn) and `CCCCC12CC1(C(=O)OCC)C(=O)Nc1ccc(Cl)cc12` (stereo not drawn) cannot be ordered by EC50: greater than 10000 nM for the first, greater than 10000 nM for the second.

`CCOC(=O)C12CC1(CC(C)C)c1cc(Cl)ccc1NC2=O` (stereo not drawn) and `CCCCC12CC1(COCC)C(=O)Nc1ccc(Cl)cc12` (stereo not drawn) cannot be ordered by EC50: greater than 10000 nM for the first, greater than 10000 nM for the second.

Test system: Human immunodeficiency virus 1
Test: Antiviral activity against HIV1 I135V mutant
Format: functional, organism-based
Conditions: not given

`CCCCC12CC1(C(N)=O)C(=O)Nc1ccc(Cl)cc12` (stereo not drawn) and `CCCCC12CC1(C(=O)OC)C(=O)Nc1ccc(Cl)cc12` (stereo not drawn) are within 1.5-fold of each other in EC50: 15 nM for the first, 12 nM for the second.

`C=CCOC(=O)C12CC1(CCCC)c1cc(Cl)ccc1NC2=O` (stereo not drawn) and `CCCCC12CC1(C(=O)OCC)C(=O)Nc1ccc(Cl)cc12` (stereo not drawn) are within 1.5-fold of each other in EC50: 23 nM for the first, 28 nM for the second.

`CCOC(=O)C12CC1(CC(C)C)c1cc(Cl)ccc1NC2=O` (stereo not drawn) and `CCCCC12CC1(COCC)C(=O)Nc1ccc(Cl)cc12` (stereo not drawn) are within 1.5-fold of each other in EC50: 85 nM for the first, 74 nM for the second.

Test system: Human immunodeficiency virus 1
Test: Antiviral activity against HIV1 F227L mutant
Format: functional, organism-based
Conditions: not given

Going from `CCCCC12CC1(C(N)=O)C(=O)Nc1ccc(Cl)cc12` (stereo not drawn) to `CCCCC12CC1(C(=O)OC)C(=O)Nc1ccc(Cl)cc12` (stereo not drawn), the EC50 rises from 1 nM to greater than 10000 nM. The first is the more potent here.

Going from `C=CCOC(=O)C12CC1(CCCC)c1cc(Cl)ccc1NC2=O` (stereo not drawn) to `CCCCC12CC1(C(=O)OCC)C(=O)Nc1ccc(Cl)cc12` (stereo not drawn), the EC50 rises from 1 nM to 7 nM (7-fold). The first is the more potent here.

Going from `CCOC(=O)C12CC1(CC(C)C)c1cc(Cl)ccc1NC2=O` (stereo not drawn) to `CCCCC12CC1(COCC)C(=O)Nc1ccc(Cl)cc12` (stereo not drawn), the EC50 rises from 22 nM to 251 nM (11-fold). The first is the more potent here.

Test system: Human immunodeficiency virus 1
Test: Antiviral activity against HIV1 V106A mutant
Format: functional, organism-based
Conditions: not given

Compared with `CCCCC12CC1(C(N)=O)C(=O)Nc1ccc(Cl)cc12` (stereo not drawn), `CCCCC12CC1(C(=O)OC)C(=O)Nc1ccc(Cl)cc12` (stereo not drawn) is 38-fold lower in EC50: 2180 nM for the first, 57 nM for the second.

Compared with `C=CCOC(=O)C12CC1(CCCC)c1cc(Cl)ccc1NC2=O` (stereo not drawn), `CCCCC12CC1(C(=O)OCC)C(=O)Nc1ccc(Cl)cc12` (stereo not drawn) is 4.4-fold lower in EC50: 1220 nM for the first, 279 nM for the second. The second is the more potent here.

First: CCOC(=O)C12CC1(CC(C)C)c1cc(Cl)ccc1NC2=O (stereo not drawn)
Second: CCCCC12CC1(COCC)C(=O)Nc1ccc(Cl)cc12 (stereo not drawn)
The EC50 of the first is 2.6-fold higher: 2940 nM for the first, 1120 nM for the second.

Test system: Human immunodeficiency virus 1
Test: Antiviral activity against HIV1 V179E mutant
Format: functional, organism-based
Conditions: not given

Going from `CCCCC12CC1(C(N)=O)C(=O)Nc1ccc(Cl)cc12` (stereo not drawn) to `CCCCC12CC1(C(=O)OC)C(=O)Nc1ccc(Cl)cc12` (stereo not drawn), the EC50 falls from 439 nM to 244 nM (1.8-fold).

First: C=CCOC(=O)C12CC1(CCCC)c1cc(Cl)ccc1NC2=O (stereo not drawn)
Second: CCCCC12CC1(C(=O)OCC)C(=O)Nc1ccc(Cl)cc12 (stereo not drawn)
The EC50 of the first is 3.9-fold lower: 233 nM for the first, 914 nM for the second. The first is the more potent here.

Going from `CCOC(=O)C12CC1(CC(C)C)c1cc(Cl)ccc1NC2=O` (stereo not drawn) to `CCCCC12CC1(COCC)C(=O)Nc1ccc(Cl)cc12` (stereo not drawn), the EC50 falls from 3950 nM to 1030 nM (3.8-fold). The second is the more potent here.

Test system: Human immunodeficiency virus 1
Test: Antiviral activity against HIV1 L100I mutant
Format: functional, organism-based
Conditions: not given

Going from `CCCCC12CC1(C(N)=O)C(=O)Nc1ccc(Cl)cc12` (stereo not drawn) to `CCCCC12CC1(C(=O)OC)C(=O)Nc1ccc(Cl)cc12` (stereo not drawn), the EC50 falls from 13 nM to 4 nM (3.2-fold). The second is the more potent here.

First: C=CCOC(=O)C12CC1(CCCC)c1cc(Cl)ccc1NC2=O (stereo not drawn)
Second: CCCCC12CC1(C(=O)OCC)C(=O)Nc1ccc(Cl)cc12 (stereo not drawn)
The EC50 of the first is 14-fold lower: 1 nM for the first, 14 nM for the second. The first is the more potent here.

Going from `CCOC(=O)C12CC1(CC(C)C)c1cc(Cl)ccc1NC2=O` (stereo not drawn) to `CCCCC12CC1(COCC)C(=O)Nc1ccc(Cl)cc12` (stereo not drawn), the EC50 falls from 63 nM to 39 nM (1.6-fold). The second is the more potent here.

Test system: Human immunodeficiency virus 1
Test: Antiviral activity against HIV1 E138K mutant
Format: functional, organism-based
Conditions: not given

First: CCCCC12CC1(C(N)=O)C(=O)Nc1ccc(Cl)cc12 (stereo not drawn)
Second: CCCCC12CC1(C(=O)OC)C(=O)Nc1ccc(Cl)cc12 (stereo not drawn)
The EC50 of the first is 5.8-fold higher: 46 nM for the first, 8 nM for the second.

`C=CCOC(=O)C12CC1(CCCC)c1cc(Cl)ccc1NC2=O` (stereo not drawn) and `CCCCC12CC1(C(=O)OCC)C(=O)Nc1ccc(Cl)cc12` (stereo not drawn) are within 1.5-fold of each other in EC50: 32 nM for the first, 47 nM for the second.

`CCOC(=O)C12CC1(CC(C)C)c1cc(Cl)ccc1NC2=O` (stereo not drawn) and `CCCCC12CC1(COCC)C(=O)Nc1ccc(Cl)cc12` (stereo not drawn) are within 1.5-fold of each other in EC50: 91 nM for the first, 94 nM for the second.

Test system: HEK293
Test: Cytotoxicity against HEK293T cells
Format: functional
Conditions: Homo sapiens

`CCCCC12CC1(C(N)=O)C(=O)Nc1ccc(Cl)cc12` (stereo not drawn) and `CCCCC12CC1(C(=O)OC)C(=O)Nc1ccc(Cl)cc12` (stereo not drawn) cannot be ordered by CC50: greater than 10000 nM for the first, greater than 10000 nM for the second.

`C=CCOC(=O)C12CC1(CCCC)c1cc(Cl)ccc1NC2=O` (stereo not drawn) and `CCCCC12CC1(C(=O)OCC)C(=O)Nc1ccc(Cl)cc12` (stereo not drawn) cannot be ordered by CC50: greater than 10000 nM for the first, greater than 10000 nM for the second.

`CCOC(=O)C12CC1(CC(C)C)c1cc(Cl)ccc1NC2=O` (stereo not drawn) and `CCCCC12CC1(COCC)C(=O)Nc1ccc(Cl)cc12` (stereo not drawn) cannot be ordered by CC50: greater than 10000 nM for the first, greater than 10000 nM for the second.

Test system: Human immunodeficiency virus 1
Test: Antiviral activity against HIV1
Format: functional, organism-based
Conditions: not given

Compared with `CCCCC12CC1(C(N)=O)C(=O)Nc1ccc(Cl)cc12` (stereo not drawn), `CCCCC12CC1(C(=O)OC)C(=O)Nc1ccc(Cl)cc12` (stereo not drawn) is 12-fold lower in EC50: 12 nM for the first, 1 nM for the second.

First: C=CCOC(=O)C12CC1(CCCC)c1cc(Cl)ccc1NC2=O (stereo not drawn)
Second: CCCCC12CC1(C(=O)OCC)C(=O)Nc1ccc(Cl)cc12 (stereo not drawn)
The EC50 of the first is 3-fold lower: 1 nM for the first, 3 nM for the second.

`CCOC(=O)C12CC1(CC(C)C)c1cc(Cl)ccc1NC2=O` (stereo not drawn) and `CCCCC12CC1(COCC)C(=O)Nc1ccc(Cl)cc12` (stereo not drawn) are within 1.5-fold of each other in EC50: 57 nM for the first, 65 nM for the second.

Test system: Human immunodeficiency virus 1
Test: Antiviral activity against HIV1 Y181C mutant
Format: functional, organism-based
Conditions: not given

Compared with `CCCCC12CC1(C(N)=O)C(=O)Nc1ccc(Cl)cc12` (stereo not drawn), `CCCCC12CC1(C(=O)OC)C(=O)Nc1ccc(Cl)cc12` (stereo not drawn) is 11-fold lower in EC50: 7960 nM for the first, 727 nM for the second.

Compared with `C=CCOC(=O)C12CC1(CCCC)c1cc(Cl)ccc1NC2=O` (stereo not drawn), `CCCCC12CC1(C(=O)OCC)C(=O)Nc1ccc(Cl)cc12` (stereo not drawn) is 1.8-fold lower in EC50: 2940 nM for the first, 1650 nM for the second.

Compared with `CCOC(=O)C12CC1(CC(C)C)c1cc(Cl)ccc1NC2=O` (stereo not drawn), `CCCCC12CC1(COCC)C(=O)Nc1ccc(Cl)cc12` (stereo not drawn) is lower in EC50: greater than 10000 nM for the first, 6240 nM for the second.

Test system: Human immunodeficiency virus 1
Test: Antiviral activity against HIV1 Y181H mutant
Format: functional, organism-based
Conditions: not given

Compared with `CCCCC12CC1(C(N)=O)C(=O)Nc1ccc(Cl)cc12` (stereo not drawn), `CCCCC12CC1(C(=O)OC)C(=O)Nc1ccc(Cl)cc12` (stereo not drawn) is 7.9-fold lower in EC50: 63 nM for the first, 8 nM for the second.

Going from `C=CCOC(=O)C12CC1(CCCC)c1cc(Cl)ccc1NC2=O` (stereo not drawn) to `CCCCC12CC1(C(=O)OCC)C(=O)Nc1ccc(Cl)cc12` (stereo not drawn), the EC50 falls from 20 nM to 9 nM (2.2-fold).

`CCOC(=O)C12CC1(CC(C)C)c1cc(Cl)ccc1NC2=O` (stereo not drawn) and `CCCCC12CC1(COCC)C(=O)Nc1ccc(Cl)cc12` (stereo not drawn) are within 1.5-fold of each other in EC50: 210 nM for the first, 216 nM for the second.

Test system: Human immunodeficiency virus 1
Test: Antiviral activity against HIV1 Y181S mutant
Format: functional, organism-based
Conditions: not given

Going from `CCCCC12CC1(C(N)=O)C(=O)Nc1ccc(Cl)cc12` (stereo not drawn) to `CCCCC12CC1(C(=O)OC)C(=O)Nc1ccc(Cl)cc12` (stereo not drawn), the EC50 falls from 2520 nM to 581 nM (4.3-fold). The second is the more potent here.

`C=CCOC(=O)C12CC1(CCCC)c1cc(Cl)ccc1NC2=O` (stereo not drawn) and `CCCCC12CC1(C(=O)OCC)C(=O)Nc1ccc(Cl)cc12` (stereo not drawn) are within 1.5-fold of each other in EC50: 932 nM for the first, 684 nM for the second.

Compared with `CCOC(=O)C12CC1(CC(C)C)c1cc(Cl)ccc1NC2=O` (stereo not drawn), `CCCCC12CC1(COCC)C(=O)Nc1ccc(Cl)cc12` (stereo not drawn) is 4.6-fold higher in EC50: 901 nM for the first, 4180 nM for the second.
